Measured values published in patent US12528822B2, “Cycloalkane-1,3-diamine derivative” (Daiichi Sankyo Company, Limited, priority 2018, dated 2026).
Where a name gives a salt, the structure may show the parent alone. Read-outs that look alike come from different tables or passages of the source.

Assays:
[1] = test system: MLL-AF9-overexpressing AML-like cells (MA9 cells); experiment: Differentiation-inducing activity in MLL-AF9-overexpressing AML-like cells (flow cytometry of Gr-1 and cKit); format: cell-based, mouse; settings: 7 days, 5 or 20 nM (Ex. 25, 27), 150 or 300 nM (Ex. 26), 50 or 100 nM (Ex. 22), compared with the control group (DMSO); for rate of the myeloid cell differentiation antigen Gr-1-expressing cells in living cells: FIG. 10; for rate of the cKit-expressing cells in living cells: FIG. 11
Method: The human MLL-AF9 fusion gene was introduced into cKit-positive mononuclear cells isolated from the myeloid of C57BL6 mouse, by retrovirus infection. MLL-AF9-overexpressing AML-like cells (MA9 cells) that acquired abnormal growth ability were established by liquid-culturing the cells after virus infection for a long period of time. Serum-free medium (GlutaMax, P/S, Stem Pro-34 medium containing 10 ng/ml mIL-3, 50 ng/mL mSCF and 10 ng/mL human Oncostatin M) was used as a culture medium.
(2 μL/well) (day 0). After culturing for 7 days (day 7), the cells were collected, and blocked with 5% FBS/PBS containing 10% Mouse BD Fc Block (BD) for 10 minutes at room temperature, and then any of various antibodies (Gr-1-FITC or CD117 (cKit)-APC: Biolegend) was added thereto at a final concentration of 0.4 μg/sample, and the mixture was reacted on ice for 30 minutes. Then, dead cell staining dye DAPI (0.2 mg/mL) was added thereto at so as to be 1 μL/sample, and the reaction was carried out on ice for additional 2 minutes under shading. Then, the expression level of each surface antigen of the cells was measured by NovoCyte flow cytometer (LMS). The obtained data were analyzed by FlowJo software (Becton Dickinson), and the rate of each surface antigen-expressing cells in the living cells excluding dead cells was graphed.

MV-4-11 cells = experiment: Cell growth inhibitory activity, MV-4-11 cells (CellTiter-Glo, 384-well); format: cell-based; settings: Homo sapiens
Method: (§1) Each cell was purchased from American Type Culture Collection (ATCC). […] The prepared drug-containing plate was stored at −30° C. until use, and thawed before use.
(§2) The suspension of each cells was prepared with 10% FBS RPMI1640 culture medium so as to be 1000 cells/mL (K562) or 10000 cells/mL (MV-4-11, MOLM-13), and seeded on the drug-containing plate (40 μL/well) (day 0). The cells were cultured for additional 3 or 7 days. ATP measurement reagent (CellTiter-Glo (registered trademark, Promega Corporation) 2.0 Assay, model number G9242, Promega Corporation) was added to each well at 10 μL/well, on the day of the drug addition (day 0) and 3 days (day 3) or 7 days (day 7) after the drug addition. After affixing a black sticker on the bottom surface, the mixture was stirred using a microplate mixing deaeration machine (model name, Weltornado FK-62, Sakaki Dengyo Co., Ltd.) (stirring conditions, revolution 9, rotation 7, time 12).
(§3) The cell growth of the drug-added group from day 0 to day 3 or day 7 was calculated as T/C %, when the cell growth of the drug-free group was considered as 100%.

[2] = molecular target: T1, menin (Flag tagged) and biotinylated MLL1 peptide (1-46aa) (Homo sapiens, UniProt O00255); experiment: biochemical
T1 sequence (O00255 1-610): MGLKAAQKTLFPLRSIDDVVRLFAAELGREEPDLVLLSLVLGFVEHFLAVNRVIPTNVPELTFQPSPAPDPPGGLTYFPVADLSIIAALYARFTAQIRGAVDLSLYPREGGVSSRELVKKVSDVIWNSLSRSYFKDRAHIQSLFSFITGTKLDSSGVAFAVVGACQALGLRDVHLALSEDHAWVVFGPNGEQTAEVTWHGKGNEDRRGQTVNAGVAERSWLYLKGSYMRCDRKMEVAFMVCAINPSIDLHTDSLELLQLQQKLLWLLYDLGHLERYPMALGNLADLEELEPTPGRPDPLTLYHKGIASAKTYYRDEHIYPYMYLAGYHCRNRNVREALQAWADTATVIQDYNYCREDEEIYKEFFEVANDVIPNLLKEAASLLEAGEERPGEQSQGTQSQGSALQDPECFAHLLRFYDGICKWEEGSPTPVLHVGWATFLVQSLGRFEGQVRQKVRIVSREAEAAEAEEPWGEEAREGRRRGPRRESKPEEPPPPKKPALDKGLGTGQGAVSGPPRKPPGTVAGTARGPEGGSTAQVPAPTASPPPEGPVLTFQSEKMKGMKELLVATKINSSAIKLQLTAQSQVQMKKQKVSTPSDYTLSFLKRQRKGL
Method: Then, the fluorescence signal by AlphaLISA (registered trademark, PerkinElmer Co., Ltd.) was measured using a plate reader (PerkinElmer Co., Ltd., EnVisionXcite).

K562 cells = experiment: Cell growth inhibitory activity, K562 cells (CellTiter-Glo, 384-well); format: cell-based; settings: Homo sapiens
Method: as §1, §2, §3

MOLM-13 cells = experiment: cells; format: cell-based; settings: Homo sapiens
Method: as §1, §2, §3

| Structure (SMILES) | rate of the myeloid cell differentiation antigen Gr-1-expressing cells in living cells [1] | rate of the cKit-expressing cells in living cells [1] | GI50 (MV-4-11 cells; 72 h, MV4;11, Day 3, read-out: GI50 (μM) Day 3 MV4) [µM] | GI50 (MV-4-11 cells; 168 h, MV4;11, Day 7, read-out: GI50 (μM) Day 7 MV4) [µM] | IC50 [2] [nM] | GI50 (K562 cells; 72 h, K562, Day 3, read-out: GI50 (μM) Day 3 K562) [µM] | GI50 (K562 cells; 168 h, K562, Day 7, read-out: GI50 (μM) Day 7 K562) [µM] | GI50 (MOLM-13 cells; MOLM-13, 72 h, read-out: GI50 (μM) Day 3 MOLM-13) [µM] | GI50 (MOLM-13 cells; MOLM-13, 168 h, read-out: GI50 (μM) Day 7 MOLM-13) [µM] |
| --- | --- | --- | --- | --- | --- | --- | --- | --- | --- |
| COc1cc(-c2ccc(CN[C@H]3C[C@@H](O)[C@@H](N(C)c4ncnc5sc(CC(F)(F)F)cc45)C3)cc2)cnc1C#N [Example 22, 5-[4-({[(1R,3R,4S)-3-hydroxy-4-{methyl[6-(2,2,2-trifluoroethyl)thieno[2,3-d]pyrimidin-4-yl]amino}cyclopentyl]amino}methyl)phenyl]-3-methoxypyridine-2-carbonitrile Hydrochloride] | increased the rate of Gr-1-positive cells | reduced the rate of cKit-positive cells |  |  |  |  |  |  |  |
| COc1cc(-c2ccc(CN[C@H]3C[C@@H](O)[C@@H](N(C)c4ncnc5sc(CC(F)(F)F)cc45)C3)cc2)nnc1OC [Example 25, (1R,2S,4R)-4-({[4-(5,6-dimethoxypyridazin-3-yl)phenyl]methyl}amino)-2-{methyl[6-(2,2,2-trifluoroethyl)thieno[2,3-d]pyrimidin-4-yl]amino}cyclopentan-1-ol Hydrochloride] | increased the rate of Gr-1-positive cells | reduced the rate of cKit-positive cells |  |  |  |  |  |  |  |
| COc1nc(N(C)[C@H]2C[C@@H](NCc3ccc(-c4cc(OC)c(OC)nn4)cc3)C[C@H]2O)c2cc(CC(F)(F)F)sc2n1 [Example 27, (1R,2S,4R)-4-({[4-(5,6-dimethoxypyridazin-3-yl)phenyl]methyl}amino)-2-{[2-methoxy-6-(2,2,2-trifluoroethyl)thieno[2,3-d]pyrimidin-4-yl](methyl)amino}cyclopentan-1-ol Hydrochloride] | increased the rate of Gr-1-positive cells | reduced the rate of cKit-positive cells |  |  |  |  |  |  |  |
| FC(F)(F)Cc1cc2c(N[C@@H]3CCC[C@H](NCc4ccc(NC5CCCCC5)cc4)C3)ncnc2s1 [Example 44, (1S,3R)-N^1-{[4-(cyclohexylamino)phenyl]methyl}-N^3-[6-(2,2,2-trifluoroethyl)thieno[2,3-d]pyrimidin-4-yl]cyclohexane-1,3-diamine hydrochloride] |  |  | 1.89 | 1.53 | 335 | 2.75 | 1.91 | 2.73 | 2.93 |
